Experimental data published in ChEMBL document CHEMBL3286222, “Synthesis and antiproliferative studies of 5-aryl-2-(3-thienylamino)-1,3,4-thiadiazoles” (Bioorg Med Chem Lett, 2014).

Tests used:
[1] = Cytotoxicity against human Hs683 cells assessed as growth inhibition after 72 hrs by MTT colorimetric assay; assay type: functional, cell-based; settings: Hs 683, 72 h
[2] = Cytotoxicity against human U373 cells assessed as growth inhibition after 72 hrs by MTT colorimetric assay; assay type: functional, cell-based, U-373MG ATCC; settings: U373 MG
A549 [3] = test: Cytotoxicity against human A549 cells assessed as growth inhibition after 72 hrs by MTT colorimetric assay; assay type: functional, cell-based; settings: A549, 72 h
MCF7 [4] = test: Cytotoxicity against human MCF7 cells assessed as growth inhibition after 72 hrs by MTT colorimetric assay; assay type: functional, cell-based; settings: MCF7, 72 h
SK-MEL-28 [5] = test: Cytotoxicity against human SK-MEL-28 cells assessed as growth inhibition after 72 hrs by MTT colorimetric assay; assay type: functional, cell-based; settings: SK-MEL-28, 72 h
[6] = Cytotoxicity against mouse B16F10 cells assessed as growth inhibition after 72 hrs by MTT colorimetric assay; assay type: functional, cell-based; settings: B16-F10, 72 h
NHDF = test: Cytotoxicity against human NHDF cells assessed as growth inhibition after 72 hrs by MTT colorimetric assay; assay type: cell-based
[7] = Cytotoxicity against human NHLF cells assessed as growth inhibition after 72 hrs by MTT colorimetric assay; assay type: cell-based
A549 [8] = test: Cytotoxicity against human A549 cells assessed as cell viability at 50 uM after 72 hrs by MTT colorimetric assay; assay type: functional; settings: A549, 72 h, read-out: Activity
[9] = Cytotoxicity against human Hs683 cells assessed as cell viability at 5 uM after 72 hrs by MTT colorimetric assay; assay type: functional; settings: Hs 683, 72 h, read-out: Activity
[10] = Cytotoxicity against human Hs683 cells assessed as cell viability at 1 uM after 72 hrs by MTT colorimetric assay; assay type: functional; settings: Hs 683, 72 h, read-out: Activity
[11] = Cytotoxicity against human U373 cells assessed as cell viability at 0.5 uM after 72 hrs by MTT colorimetric assay; assay type: functional, U-373MG ATCC; settings: U373 MG, read-out: Activity
A549 [12] = test: Cytotoxicity against human A549 cells assessed as cell viability at 0.5 uM after 72 hrs by MTT colorimetric assay; assay type: functional; settings: A549, 72 h, read-out: Activity
MCF7 [13] = test: Cytotoxicity against human MCF7 cells assessed as cell viability at 100 uM after 72 hrs by MTT colorimetric assay; assay type: functional; settings: MCF7, 72 h, read-out: Activity
[14] = Cytotoxicity against mouse B16F10 cells assessed as cell viability at 1 uM after 72 hrs by MTT colorimetric assay; assay type: functional; settings: B16-F10, 72 h, read-out: Activity
A549 [15] = test: Cytotoxicity against human A549 cells assessed as cell viability at 100 uM after 72 hrs by MTT colorimetric assay; assay type: functional; settings: A549, 72 h, read-out: Activity
[16] = Cytotoxicity against mouse B16F10 cells assessed as cell viability at 0.5 uM after 72 hrs by MTT colorimetric assay; assay type: functional; settings: B16-F10, 72 h, read-out: Activity
[17] = Cytotoxicity against human Hs683 cells assessed as cell viability at 0.05 uM after 72 hrs by MTT colorimetric assay; assay type: functional; settings: Hs 683, 72 h, read-out: Activity
MCF7 [18] = test: Cytotoxicity against human MCF7 cells assessed as cell viability at 0.5 uM after 72 hrs by MTT colorimetric assay; assay type: functional; settings: MCF7, 72 h, read-out: Activity
SK-MEL-28 [19] = test: Cytotoxicity against human SK-MEL-28 cells assessed as cell viability at 0.5 uM after 72 hrs by MTT colorimetric assay; assay type: functional; settings: SK-MEL-28, 72 h, read-out: Activity
[20] = Cytotoxicity against human Hs683 cells assessed as cell viability at 0.5 uM after 72 hrs by MTT colorimetric assay; assay type: functional; settings: Hs 683, 72 h, read-out: Activity
SK-MEL-28 [21] = test: Cytotoxicity against human SK-MEL-28 cells assessed as cell viability at 100 uM after 72 hrs by MTT colorimetric assay; assay type: functional; settings: SK-MEL-28, 72 h, read-out: Activity
[22] = Cytotoxicity against human Hs683 cells assessed as cell viability at 50 uM after 72 hrs by MTT colorimetric assay; assay type: functional; settings: Hs 683, 72 h, read-out: Activity
[23] = Cytotoxicity against mouse B16F10 cells assessed as cell viability at 50 uM after 72 hrs by MTT colorimetric assay; assay type: functional; settings: B16-F10, 72 h, read-out: Activity
[24] = Cytotoxicity against human U373 cells assessed as cell viability at 10 uM after 72 hrs by MTT colorimetric assay; assay type: functional, U-373MG ATCC; settings: U373 MG, read-out: Activity
A549 [25] = test: Cytotoxicity against human A549 cells assessed as cell viability at 10 uM after 72 hrs by MTT colorimetric assay; assay type: functional; settings: A549, 72 h, read-out: Activity
MCF7 [26] = test: Cytotoxicity against human MCF7 cells assessed as cell viability at 5 uM after 72 hrs by MTT colorimetric assay; assay type: functional; settings: MCF7, 72 h, read-out: Activity
[27] = Cytotoxicity against human Hs683 cells assessed as cell viability at 100 uM after 72 hrs by MTT colorimetric assay; assay type: functional; settings: Hs 683, 72 h, read-out: Activity
MCF7 [28] = test: Cytotoxicity against human MCF7 cells assessed as cell viability at 50 uM after 72 hrs by MTT colorimetric assay; assay type: functional; settings: MCF7, 72 h, read-out: Activity
[29] = Cytotoxicity against mouse B16F10 cells assessed as cell viability at 5 uM after 72 hrs by MTT colorimetric assay; assay type: functional; settings: B16-F10, 72 h, read-out: Activity

| SMILES | IC50 [1] | IC50 [2] | IC50 (A549 [3]) | IC50 (MCF7 [4]) | IC50 (SK-MEL-28 [5]) | IC50 [6] | further results |
| --- | --- | --- | --- | --- | --- | --- | --- |
| COc1ccc(-c2cc(NC(=S)NNC(=O)c3ccc(C)cc3)cs2)cc1 | 30 µM | > 100 µM | 35 µM | 40 µM | 22 µM | 7 µM |  |
| Cc1ccc(C(=O)NNC(=S)Nc2csc(-c3ccccc3)c2)cc1 | 37 µM | 62 µM | 40 µM | 30 µM | 40 µM | 24 µM |  |
| Cc1ccc(C(=O)NNC(=S)Nc2csc(-c3ccc(C)cc3)c2)cc1 | 40 µM | 38 µM | 37 µM | 29 µM | 44 µM | 20 µM |  |
| COc1cc(C(=O)NNC(=S)Nc2csc(-c3ccccc3)c2)cc(OC)c1OC | 42 µM | 44 µM | 39 µM | 43 µM | 55 µM | 32 µM |  |
| COc1cc(C(=O)NNC(=S)Nc2csc(-c3ccc(C)cc3)c2)cc(OC)c1OC | 42 µM | 47 µM | 39 µM | 31 µM | 42 µM | 13 µM |  |
| COc1ccc(C(=O)NNC(=S)Nc2csc(-c3ccccc3)c2)cc1 | 35 µM | 41 µM | 36 µM | 32 µM | 30 µM | 33 µM |  |
| COc1ccc(C(=O)NNC(=S)Nc2csc(-c3ccc(C)cc3)c2)cc1 | 12 µM | 19 µM | 11 µM | 5 µM | 11 µM | 9 µM | IC50 (NHDF): 22 µM; IC50 [7]: 28 µM |
| O=C(NNC(=S)Nc1csc(-c2ccccc2)c1)c1ccc(O)cc1 | 80 µM | > 100 µM | 75 µM | 78 µM | 71 µM | 40 µM |  |
| Cc1ccc(-c2cc(NC(=S)NNC(=O)c3ccc(O)cc3)cs2)cc1 | 49 µM | 64 µM | 44 µM | 42 µM | 46 µM | 48 µM |  |
| COc1cc(OC)cc(C(=O)NNC(=S)Nc2csc(-c3ccccc3)c2)c1 | 42 µM | 40 µM | 39 µM | 38 µM | 37 µM | 30 µM |  |
| COc1cc(OC)cc(C(=O)NNC(=S)Nc2csc(-c3ccc(C)cc3)c2)c1 | 37 µM | 41 µM | 32 µM | 26 µM | 38 µM | 13 µM |  |
| COc1ccc(C(=O)NNC(=S)Nc2csc(-c3ccccc3)c2)cc1OC | 22 µM | 59 µM | 20 µM | 21 µM | 28 µM | 9 µM |  |
| COc1ccc(C(=O)NNC(=S)Nc2csc(-c3ccc(C)cc3)c2)cc1OC | 39 µM | 47 µM | 36 µM | 11 µM | 19 µM | 7 µM |  |
| Cc1ccc(-c2nnc(Nc3csc(-c4ccccc4)c3)s2)cc1 |  | > 100 µM |  | 34 µM | > 100 µM | 4 µM | viability at 50 µM (A549 [8]): < 50%; viability at 5 µM [9]: < 50% |
| Cc1ccc(-c2cc(Nc3nnc(-c4ccc(C)cc4)s3)cs2)cc1 |  |  |  |  | > 100 µM |  | viability at 1 µM [10]: < 50%; viability at 0.5 µM [11]: < 50%; viability at 0.5 µM (A549 [12]): < 50%; viability at 100 µM (MCF7 [13]): < 50%; viability at 1 µM [14]: < 50% |
| COc1cc(-c2nnc(Nc3csc(-c4ccccc4)c3)s2)cc(OC)c1OC |  | > 100 µM |  | > 100 µM | > 100 µM |  | viability at 100 µM (A549 [15]): < 50%; viability at 0.5 µM [16]: < 50%; viability at 5 µM [9]: < 50% |
| COc1cc(-c2nnc(Nc3csc(-c4ccc(C)cc4)c3)s2)cc(OC)c1OC |  |  |  |  |  | 12 µM | viability at 0.05 µM [17]: < 50%; viability at 0.5 µM [11]: < 50%; viability at 0.5 µM (A549 [12]): < 50%; viability at 0.5 µM (MCF7 [18]): < 50%; viability at 0.5 µM (SK-MEL-28 [19]): < 50% |
| COc1ccc(-c2nnc(Nc3csc(-c4ccccc4)c3)s2)cc1 | 5 µM | 92 µM | 8 µM | 60 µM | > 100 µM | 6 µM |  |
| COc1ccc(-c2nnc(Nc3csc(-c4ccc(C)cc4)c3)s2)cc1 |  |  |  |  |  |  | viability at 0.5 µM [20]: < 50%; viability at 0.5 µM [11]: < 50%; viability at 0.5 µM (A549 [12]): < 50%; viability at 0.5 µM (MCF7 [18]): < 50%; viability at 100 µM (SK-MEL-28 [21]): < 50%; viability at 1 µM [14]: < 50% |
| Oc1ccc(-c2nnc(Nc3csc(-c4ccccc4)c3)s2)cc1 | 26 µM | 58 µM | 15 µM | 24 µM | 57 µM | 8 µM |  |
| Cc1ccc(-c2cc(Nc3nnc(-c4ccc(O)cc4)s3)cs2)cc1 | 17 µM | 8 µM | 6 µM | 8 µM | 14 µM | 6 µM |  |
| COc1cc(OC)cc(-c2nnc(Nc3csc(-c4ccccc4)c3)s2)c1 |  | 92 µM |  |  | > 100 µM |  | viability at 50 µM [22]: < 50%; viability at 100 µM (A549 [15]): < 50%; viability at 100 µM (MCF7 [13]): < 50%; viability at 50 µM [23]: < 50% |
| COc1cc(OC)cc(-c2nnc(Nc3csc(-c4ccc(C)cc4)c3)s2)c1 |  |  |  |  | > 100 µM |  | viability at 10 µM [24]: < 50%; viability at 10 µM (A549 [25]): < 50%; viability at 5 µM (MCF7 [26]): < 50%; viability at 1 µM [14]: < 50%; viability at 5 µM [9]: < 50% |
| COc1ccc(-c2nnc(Nc3csc(-c4ccccc4)c3)s2)cc1OC |  | > 100 µM | > 100 µM | 92 µM | > 100 µM |  | viability at 100 µM [27]: < 50%; viability at 0.5 µM [16]: < 50% |
| COc1ccc(-c2nnc(Nc3csc(-c4ccc(C)cc4)c3)s2)cc1OC |  | > 100 µM |  |  | > 100 µM |  | viability at 0.5 µM (A549 [12]): < 50%; viability at 50 µM (MCF7 [28]): < 50%; viability at 5 µM [29]: < 50%; viability at 5 µM [9]: < 50% |
